In ChEMBL document CHEMBL5046296 (J Med Chem, 2022):
Values after ≈ are worked out from the molar mass of the structure shown.

Legend:
[1] = Metabolic stability in rat liver microsomes assessed as CYP450-mediated metabolism by measuring parent compound remaining at 0.5 uM incubated for 10 mins in presence of NADPH by LC-MS/MS analysis; format: ADME; settings: read-out: Stability
[2] = Ratio of drug concentration in spinal cord to plasma of overnight fasted Sprague-Dawley rat model with streptozotocin induced diabetic peripheral neuropathic mechanical allodynia at 0.3 mg/kg, po measured at 5.5 hrs post dose; format: ADME, organism-based
[3] = Metabolic stability in dog liver microsomes assessed as half life; format: ADME, Canis lupus familiaris, Microsome
[4] = Solubility of the compound in FaSSIF; format: physicochemical
[5] = MRT in monkey at 2 mg/kg, iv; format: ADME, organism-based, Macaca mulatta; settings: rhesus monkey, in vivo
[6] = Solubility of the compound at pH 1.2 using crystalline form of sample; format: physicochemical
[7] = target: Voltage-gated inwardly rectifying potassium channel KCNH2 (Homo sapiens, UniProt Q12809); experiment: Inhibition of human ERG by patch clamp assay; format: toxicity
[8] = target: BMP-2-inducible protein kinase (Homo sapiens, UniProt Q9NSY1); experiment: Inhibition of BIKE (unknown origin)
[9] = Drug uptake in Spinal cord of CCI induced thermal hyperalgesia Sprague-Dawley rat model assessed as spinal occupancy at 1 mg/kg, po measured at 5.75 hrs post dose in presence of [3H]BMT-046091; format: ADME, organism-based; settings: in vivo
[10] = Drug concentration in overnight fasted Sprague-Dawley rat spinal cord with streptozotocin induced diabetic peripheral neuropathic mechanical allodynia at 0.3 mg/kg, po measured at 5.5 hrs post dose; format: ADME, organism-based; settings: read-out: Ct
[11] = Drug concentration in overnight fasted Sprague-Dawley rat spinal cord with streptozotocin induced diabetic peripheral neuropathic mechanical allodynia at 1 mg/kg, po measured at 5.5 hrs post dose; format: ADME, organism-based; settings: read-out: Ct
[12] = Ratio of drug concentration in spinal cord to plasma in CCI induced thermal hyperalgesia Sprague-Dawley rat model at 1 mg/kg, po measured at 5.75 hrs post dose; format: ADME, organism-based
Rattus norvegicus [13] = experiment: Analgesic activity in CCI induced thermal hyperalgesia Sprague-Dawley rat model assessed as efficacy at 0.1 mg/kg, po measured at 5.75 hrs post dose; format: functional
[14] = Apparent elimination half life in dog at 2 mg/kg, iv; format: ADME, organism-based, Canis lupus familiaris; settings: in vivo, read-out: betat1/2(app) (converted)
[15] = target: Solute carrier family 22 member 6 (Homo sapiens, UniProt Q4U2R8); experiment: Inhibition of OAT1 (unknown origin)
[16] = target: Sodium-dependent noradrenaline transporter (Homo sapiens, UniProt P23975); experiment: Inhibition of NET (unknown origin); format: toxicity
[17] = Cmax in overnight fasted Sprague-Dawley rat plasma with streptozotocin induced diabetic peripheral neuropathic mechanical allodynia at 0.1 mg/kg, po measured at 5.5 hrs post dose; format: ADME, organism-based; set-up: route oral, time 5.5 hrs, dose 0.1 mg/kg
[18] = Ratio of drug concentration in spinal cord to plasma in Sprague-Dawley rat at 10 mg/kg, po measured at 5.25 hrs post dose; format: ADME, organism-based
[19] = Apparent elimination half life in rat at 2 mg/kg, iv; format: ADME, organism-based; settings: in vivo, read-out: betat1/2(app) (converted)
Cytochrome P450 2B6 = Cytochrome P450 2B6 (Homo sapiens, UniProt P20813); experiment: Inhibition of CYP2B6 (unknown origin); format: ADME
[20] = Metabolic stability in rat liver microsomes assessed as half life; format: ADME, Microsome
[21] = target: Citron Rho-interacting kinase (Homo sapiens, UniProt O14578); experiment: Inhibition of CRIK (unknown origin)
[22] = AUC (infinity) in dog at 3 mg/kg, po; format: ADME, organism-based, Canis lupus familiaris; set-up: route oral, time infinity, dose 3 mg/kg; settings: in vivo
[23] = Cmax in Sprague-Dawley rat plasma with CCI induced thermal hyperalgesia at 1 mg/kg, po measured at 5.75 hrs post dose; format: ADME, organism-based; set-up: route oral, dose 1 mg/kg, time 5.75 hrs
[24] = Ratio of drug concentration in spinal cord to plasma of overnight fasted Sprague-Dawley rat model with streptozotocin induced diabetic peripheral neuropathic mechanical allodynia at 1 mg/kg, po measured at 5.5 hrs post dose; format: ADME, organism-based
Cytochrome P450 = Cytochrome P450 (Homo sapiens, UniProt P04798+P05177+P05181+P08684+P10632+P10635+P11509+P11712+P13584+P20813+P20815+P20853+P24462+P24903+P33260+P33261+P51589+P78329+P98187+Q02928+Q08477+Q16678+Q16696+Q5TCH4+Q6VVX0+Q7Z449+Q8TAV3+Q96SQ9+Q9HB55); experiment: Metabolic stability in human liver microsomes assessed as CYP450-mediated metabolism by measuring parent compound remaining at 0.5 uM incubated for 10 mins in presence of NADPH by LC-MS/MS analysis; format: ADME; settings: read-out: Stability
[25] = Protein binding in human plasma assessed as unbound fraction at 10 uM measured after 5 hrs by LC-MS/MS analysis; format: ADME, cell-free
[26] = Drug uptake in Spinal cord of CCI induced thermal hyperalgesia Sprague-Dawley rat model assessed as spinal occupancy at 0.3 mg/kg, po measured at 5.75 hrs post dose in presence of [3H]BMT-046091; format: ADME, organism-based; settings: in vivo
[27] = Solubility of the compound in PEG400; format: physicochemical
[28] = Ratio of drug concentration in spinal cord to plasma in Sprague-Dawley rat at 30 mg/kg, po measured at 5.25 hrs post dose; format: ADME, organism-based
[29] = Oral bioavailability in dog at 3 mg/kg; format: ADME, organism-based, Canis lupus familiaris; settings: in vivo
[30] = target: AP2-associated protein kinase 1 (Homo sapiens, UniProt Q2M2I8); experiment: Inhibition of […] in HEK293F cells assessed as reduction in phospho mu2 formation incubated for 3 hrs by Western blot analysis; format: cell-based
[31] = Solubility of the compound in ethanol; format: physicochemical
[32] = AUC (infinity) in rat at 3 mg/kg, po; format: ADME, organism-based; set-up: route oral, time infinity, dose 3 mg/kg; settings: in vivo
[33] = Drug concentration in overnight fasted Sprague-Dawley rat spinal cord with streptozotocin induced diabetic peripheral neuropathic mechanical allodynia at 3 mg/kg, po measured at 5.5 hrs post dose; format: ADME, organism-based; settings: read-out: Ct
[34] = Tmax in rat at 3 mg/kg, po; format: ADME, organism-based; settings: in vivo
[35] = Drug concentration in Sprague-Dawley rat spinal cord with CCI induced thermal hyperalgesia at 0.3 mg/kg, po measured at 5.75 hrs post dose; format: ADME, organism-based; settings: read-out: Ct
[36] = AUC (infinity) in monkey at 3 mg/kg, po; format: ADME, organism-based, Macaca mulatta; set-up: route oral, time infinity, dose 3 mg/kg; settings: rhesus monkey, in vivo
Cytochrome P450 3A4 = Cytochrome P450 3A4 (Homo sapiens, UniProt P08684); experiment: Time dependent inhibition of CYP3A4 (unknown origin) using MDZ as substrate measured at 5 mins; format: ADME
Rattus norvegicus [37] = experiment: Analgesic activity in streptozotocin induced diabetic peripheral neuropathic mechanical allodynia in overnight fasted Sprague-Dawley rat model assessed as efficacy at 1 mg/kg, po measured at 5.5 hrs post dose; format: functional
[38] = Volume of distribution at steady state in mouse at 2 mg/kg, iv; format: ADME, organism-based; settings: in vivo, read-out: Vdss
[39] = target: Organic anion transporter 3 (Homo sapiens, UniProt Q8TCC7); experiment: Inhibition of OAT3 (unknown origin)
[40] = Drug concentration in Sprague-Dawley rat spinal cord with CCI induced thermal hyperalgesia at 0.1 mg/kg, po measured at 5.75 hrs post dose; format: ADME, organism-based; settings: read-out: Ct
[41] = target: Cyclin-G-associated kinase (Homo sapiens, UniProt O14976); experiment: Inhibition of GAK (unknown origin)
Chain of Cyclin-G-associated kinase (O14976 whole entry): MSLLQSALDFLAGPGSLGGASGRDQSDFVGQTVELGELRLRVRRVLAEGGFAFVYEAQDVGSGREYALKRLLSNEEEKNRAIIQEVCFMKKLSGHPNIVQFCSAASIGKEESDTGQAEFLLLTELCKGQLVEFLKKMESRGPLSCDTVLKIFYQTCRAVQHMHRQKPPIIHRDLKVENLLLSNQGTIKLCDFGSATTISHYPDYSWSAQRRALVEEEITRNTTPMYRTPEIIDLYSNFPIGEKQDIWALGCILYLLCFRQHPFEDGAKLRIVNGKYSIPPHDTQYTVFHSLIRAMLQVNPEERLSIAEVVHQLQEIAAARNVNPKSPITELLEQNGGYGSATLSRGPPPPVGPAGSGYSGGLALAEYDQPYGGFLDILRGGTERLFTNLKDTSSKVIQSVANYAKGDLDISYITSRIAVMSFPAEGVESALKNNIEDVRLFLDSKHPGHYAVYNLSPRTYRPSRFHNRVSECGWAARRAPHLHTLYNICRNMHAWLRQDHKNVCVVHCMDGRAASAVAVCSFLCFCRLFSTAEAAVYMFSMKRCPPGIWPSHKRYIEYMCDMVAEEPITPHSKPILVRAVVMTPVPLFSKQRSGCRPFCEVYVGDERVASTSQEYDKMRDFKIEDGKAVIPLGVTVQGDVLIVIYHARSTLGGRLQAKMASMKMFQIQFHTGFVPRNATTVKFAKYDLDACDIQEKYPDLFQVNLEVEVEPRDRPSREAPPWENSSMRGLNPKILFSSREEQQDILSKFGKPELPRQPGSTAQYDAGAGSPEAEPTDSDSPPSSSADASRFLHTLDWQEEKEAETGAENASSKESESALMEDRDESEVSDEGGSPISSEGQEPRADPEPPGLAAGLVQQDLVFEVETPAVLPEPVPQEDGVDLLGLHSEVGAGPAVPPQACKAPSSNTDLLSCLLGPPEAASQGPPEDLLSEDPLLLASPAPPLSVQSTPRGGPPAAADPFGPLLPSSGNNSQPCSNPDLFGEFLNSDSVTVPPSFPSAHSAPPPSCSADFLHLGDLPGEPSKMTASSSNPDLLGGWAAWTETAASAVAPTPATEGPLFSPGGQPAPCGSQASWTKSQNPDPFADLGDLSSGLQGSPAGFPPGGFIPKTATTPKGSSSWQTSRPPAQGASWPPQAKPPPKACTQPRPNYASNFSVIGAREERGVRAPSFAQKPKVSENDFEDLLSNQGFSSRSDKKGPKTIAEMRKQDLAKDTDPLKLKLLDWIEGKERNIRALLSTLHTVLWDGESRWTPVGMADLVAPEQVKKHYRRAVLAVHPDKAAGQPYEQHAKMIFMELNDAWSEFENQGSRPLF

Chain of Cytochrome P450 2B6 (P20813 whole entry): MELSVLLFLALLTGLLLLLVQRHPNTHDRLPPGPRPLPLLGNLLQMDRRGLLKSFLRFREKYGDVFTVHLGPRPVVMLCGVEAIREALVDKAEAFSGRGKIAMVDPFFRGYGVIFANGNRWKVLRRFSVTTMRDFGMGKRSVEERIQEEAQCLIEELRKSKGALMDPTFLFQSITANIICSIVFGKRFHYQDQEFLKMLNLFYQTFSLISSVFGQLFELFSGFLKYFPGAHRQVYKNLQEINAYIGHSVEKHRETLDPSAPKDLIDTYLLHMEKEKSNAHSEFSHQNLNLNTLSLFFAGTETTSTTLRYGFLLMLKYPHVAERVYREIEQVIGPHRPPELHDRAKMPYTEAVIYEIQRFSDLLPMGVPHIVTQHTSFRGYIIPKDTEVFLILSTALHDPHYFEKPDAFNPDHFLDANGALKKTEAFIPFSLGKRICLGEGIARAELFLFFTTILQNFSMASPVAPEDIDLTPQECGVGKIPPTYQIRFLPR
Chain of Solute carrier family 22 member 6 (Q4U2R8 whole entry): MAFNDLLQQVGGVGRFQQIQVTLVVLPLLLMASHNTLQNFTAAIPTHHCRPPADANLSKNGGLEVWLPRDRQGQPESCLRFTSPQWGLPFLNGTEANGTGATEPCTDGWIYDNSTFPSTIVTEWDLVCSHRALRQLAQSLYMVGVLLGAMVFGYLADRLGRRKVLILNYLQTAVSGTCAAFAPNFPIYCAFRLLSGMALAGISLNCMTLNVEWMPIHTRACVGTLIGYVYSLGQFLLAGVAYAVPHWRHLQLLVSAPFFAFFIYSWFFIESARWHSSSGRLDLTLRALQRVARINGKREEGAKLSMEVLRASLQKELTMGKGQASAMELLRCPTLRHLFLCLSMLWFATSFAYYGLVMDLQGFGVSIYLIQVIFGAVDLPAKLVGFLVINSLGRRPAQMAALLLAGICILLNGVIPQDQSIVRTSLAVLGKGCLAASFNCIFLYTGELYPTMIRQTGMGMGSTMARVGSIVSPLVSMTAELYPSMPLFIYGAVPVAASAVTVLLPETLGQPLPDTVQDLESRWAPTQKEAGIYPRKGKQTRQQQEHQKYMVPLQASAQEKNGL
Chain of Sodium-dependent noradrenaline transporter (P23975 whole entry): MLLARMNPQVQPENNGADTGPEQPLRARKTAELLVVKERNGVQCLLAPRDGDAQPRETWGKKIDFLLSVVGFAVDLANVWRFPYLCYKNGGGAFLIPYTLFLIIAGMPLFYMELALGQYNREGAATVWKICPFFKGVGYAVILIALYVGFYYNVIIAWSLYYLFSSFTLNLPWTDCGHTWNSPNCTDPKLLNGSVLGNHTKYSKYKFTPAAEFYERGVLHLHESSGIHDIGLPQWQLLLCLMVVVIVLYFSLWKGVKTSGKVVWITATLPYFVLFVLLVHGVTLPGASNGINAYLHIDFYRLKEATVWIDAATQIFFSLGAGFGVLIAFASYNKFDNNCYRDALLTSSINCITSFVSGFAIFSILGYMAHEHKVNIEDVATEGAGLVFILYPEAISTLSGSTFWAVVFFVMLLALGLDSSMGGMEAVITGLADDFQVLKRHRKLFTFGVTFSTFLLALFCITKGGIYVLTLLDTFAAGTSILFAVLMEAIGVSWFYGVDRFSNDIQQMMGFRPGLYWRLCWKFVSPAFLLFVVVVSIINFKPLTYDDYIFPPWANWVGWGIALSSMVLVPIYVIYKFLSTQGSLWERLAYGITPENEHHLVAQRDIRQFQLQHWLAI
Chain of AP2-associated protein kinase 1 (Q2M2I8 whole entry): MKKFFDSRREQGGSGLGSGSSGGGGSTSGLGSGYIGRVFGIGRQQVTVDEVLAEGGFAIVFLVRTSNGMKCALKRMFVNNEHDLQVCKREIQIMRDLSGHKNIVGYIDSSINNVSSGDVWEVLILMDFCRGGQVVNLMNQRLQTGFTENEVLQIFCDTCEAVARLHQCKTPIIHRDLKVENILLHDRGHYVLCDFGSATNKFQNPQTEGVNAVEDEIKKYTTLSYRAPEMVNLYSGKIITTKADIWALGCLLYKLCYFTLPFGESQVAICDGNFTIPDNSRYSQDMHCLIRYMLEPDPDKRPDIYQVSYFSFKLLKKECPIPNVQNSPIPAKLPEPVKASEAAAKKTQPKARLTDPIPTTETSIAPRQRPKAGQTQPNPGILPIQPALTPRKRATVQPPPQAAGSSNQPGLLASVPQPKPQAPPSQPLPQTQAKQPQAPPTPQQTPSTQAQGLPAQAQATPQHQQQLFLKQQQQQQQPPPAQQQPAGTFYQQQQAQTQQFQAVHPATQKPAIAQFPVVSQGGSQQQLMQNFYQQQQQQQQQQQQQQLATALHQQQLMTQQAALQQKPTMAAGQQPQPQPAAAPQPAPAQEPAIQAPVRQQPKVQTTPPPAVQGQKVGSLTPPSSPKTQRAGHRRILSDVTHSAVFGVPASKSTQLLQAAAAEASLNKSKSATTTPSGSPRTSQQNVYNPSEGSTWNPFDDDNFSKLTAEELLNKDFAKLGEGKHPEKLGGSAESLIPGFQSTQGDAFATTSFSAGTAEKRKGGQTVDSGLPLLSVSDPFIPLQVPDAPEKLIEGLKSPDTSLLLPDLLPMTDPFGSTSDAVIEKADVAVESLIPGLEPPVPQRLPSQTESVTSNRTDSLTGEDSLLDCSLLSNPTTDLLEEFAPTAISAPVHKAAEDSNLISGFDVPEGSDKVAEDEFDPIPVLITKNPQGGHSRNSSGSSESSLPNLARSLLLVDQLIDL
Chain of Cytochrome P450 3A4 (P08684 whole entry): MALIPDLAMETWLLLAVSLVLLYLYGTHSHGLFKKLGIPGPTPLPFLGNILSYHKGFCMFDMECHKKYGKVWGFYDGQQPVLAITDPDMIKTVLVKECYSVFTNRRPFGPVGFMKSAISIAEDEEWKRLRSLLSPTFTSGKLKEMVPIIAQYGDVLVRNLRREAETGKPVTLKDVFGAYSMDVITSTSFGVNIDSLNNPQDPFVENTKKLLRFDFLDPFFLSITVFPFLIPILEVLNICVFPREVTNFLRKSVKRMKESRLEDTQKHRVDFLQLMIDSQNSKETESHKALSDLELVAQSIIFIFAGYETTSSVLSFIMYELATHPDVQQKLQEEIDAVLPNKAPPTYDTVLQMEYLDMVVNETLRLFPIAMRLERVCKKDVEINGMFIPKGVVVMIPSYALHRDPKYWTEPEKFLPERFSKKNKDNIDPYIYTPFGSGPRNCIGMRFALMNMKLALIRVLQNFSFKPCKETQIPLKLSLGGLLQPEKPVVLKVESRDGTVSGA
Chain of Organic anion transporter 3 (Q8TCC7 whole entry): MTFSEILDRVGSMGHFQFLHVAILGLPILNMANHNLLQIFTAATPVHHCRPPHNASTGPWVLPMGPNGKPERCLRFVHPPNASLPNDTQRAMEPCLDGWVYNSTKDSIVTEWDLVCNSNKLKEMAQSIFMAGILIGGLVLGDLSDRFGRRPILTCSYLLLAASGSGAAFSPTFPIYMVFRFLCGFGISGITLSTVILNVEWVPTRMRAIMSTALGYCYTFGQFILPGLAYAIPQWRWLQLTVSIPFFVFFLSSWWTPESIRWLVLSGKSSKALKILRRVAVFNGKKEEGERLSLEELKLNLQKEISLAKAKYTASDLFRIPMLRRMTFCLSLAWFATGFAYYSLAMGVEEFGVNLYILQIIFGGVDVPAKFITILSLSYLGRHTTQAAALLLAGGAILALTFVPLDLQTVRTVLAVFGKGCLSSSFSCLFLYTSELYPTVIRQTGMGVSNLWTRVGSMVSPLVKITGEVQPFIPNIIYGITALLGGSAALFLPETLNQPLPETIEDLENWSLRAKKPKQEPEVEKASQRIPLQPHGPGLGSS

With `CC(C)C[C@](C)(N)COc1ccc(-c2ccnc(C(F)F)c2)nc1C(F)F` [PILAVAPADIN] the remaining at 10 min, 0.5 µM [1] was 92%, the Kp at 5.5 h [2] was 8 and the half-life [3] was 0.5 h. The solubility [4] was 700 µg/mL (≈ 1.82 mM), the MRT [5] was 8.5 h and the solubility thermodynamic [6] was 2000 µg/mL (≈ 5.19 mM). For the same compound, the IC50 [7] was 1400 nM, the IC50 [8] was 1900 nM and the Occ [9] was 96%. The concentration at 5.5 h [10] was 206 nM, the concentration at 5.5 h [11] was 852 nM and the Kp at 5.75 h [12] was 19. It also gave an Efficacy (Rattus norvegicus [13]) of 25%, a half-life [14] of 4.8 h and an IC50 [15] of over 30000 nM. The IC50 [16] was 390 nM, the Cmax [17] was 6 nM and the Kp at 5.25 h [18] was 21. For the same compound, the half-life [19] was 8.7 h, the IC50 (Cytochrome P450 2B6) was over 20000 nM and the half-life [20] was over 2 h. It also gave an IC50 [21] of 410 nM, an AUC(0-inf) [22] of 1630 ng·h/mL and a Cmax [23] of 63 nM. The Kp at 5.5 h [24] was 9, the remaining at 10 min, 0.5 µM (Cytochrome P450) was 87% and the fraction unbound at 5 h, 10 µM [25] was 0.085. The Occ [26] was 83%, the solubility [27] was over 50000 µg/mL and the Kp at 5.25 h [28] was 20. The bioavailability [29] was 87%, the IC50 [30] was 2 nM and the solubility [31] was over 50000 µg/mL. For the same compound, the AUC(0-inf) [32] was 880 ng·h/mL, the concentration at 5.5 h [33] was 2370 nM and the Tmax [34] was 3 h. For the same compound, the concentration at 5.75 h [35] was 431 nM, the AUC(0-inf) [36] was 270 ng·h/mL and the IC50 (Cytochrome P450 3A4) was over 40000 nM. It also gave an Efficacy (Rattus norvegicus [37]) of 60%, a Vd [38] of 19 L/kg and an IC50 [39] of over 30000 nM. For the same compound, the concentration at 5.75 h [40] was 214 nM and the IC50 [41] was 800 nM.
